Common to all, as to type: biochemical
One experiment addresses c-MET kinase (Homo sapiens (Human), UniProt P08581). Nature of the experiment: Assay of small molecular compounds for inhibiting the activity of c-MET kinase (LANCE TR-FRET). Conditions: read-out: CMET IC50. As to the method:
The assay is based on the LANCE TR-FRET technology of Perkin Elmer Inc., and the assay method is as follows: • 1. Dilution of compounds: a total of 11 concentrations were obtained using a 3-fold gradient dilution from the highest concentration of 2500 nM (the maximum final concentration of the drug used in this assay was 2500 nM, and the minimum final concentration was 0.042 nM). • 2. 2.5 μL of the gradient-diluted compounds were taken with a transfer pipette to a 384-well plate. • 3. Addition of enzyme: 5 μL of 2×c-MET kinase solution (with a concentration of 2 nM) was taken with a transfer pipette to the corresponding reaction well of the 384-well plate, mixed well and pre-reacted at room temperature for 5 minutes. • 4. 2.5 μL 4× Ultra ULight™-JAK-1 (Tyr1023) Peptide (with a concentration of 400 nM)/ATP (with a concentration of 40 μM) mixture was taken with a transfer pipette to the corresponding reaction well of the 384-well plate. • 5. Negative control: 2.5 μL/well 4× substrate/ATP mixture and 7.5 μL 1× Kinase Assay Buffer were added to the wells of the 384-well plate. • 6. Positive control: 2.5 μL/well 4× substrate/ATP mixture, 2.5 μL/well 1× Kinase Assay Buffer containing 16% DMSO, and 5 μL/well 2× c-MET kinase solution were added to the 384-well plate. The final concentration of DMSO in the reaction system was 4%. • 7. The mixture was mixed well and then centrifuged and reacted at room temperature in dark for 60 min. • 8. Termination of the enzymatic reaction: 5 μL of 4× stop solution was taken with a transfer pipette to the wells of the 384-well plate, mixed and then centrifuged, and reacted at room temperature for 5 min. • 9. Development of the reaction: 5 μL of 4× detection solution was taken with a transfer pipette to the wells of the 384-well plate for color development, and the mixture was mixed and then centrifuged and reacted at room temperature for 60 min. • 10. The 384-well plate was placed into the Envision plate reader and the signal was detected using the appropriate program. • 11. Analysis and processing of the raw data: • 12. The drug concentrations and the corresponding inhibition rates were input into GraphPad Prism5 for calculation, and the inhibition rate of the compounds were calculated as follows: inhibition rate (%)=(reading of positive well−reading of experimental well)/(reading of positive control well−reading of negative control well)×100%. Processing with GraphPad Prism5 software yielded the corresponding IC50 values (the concentration of the compound at which 50% of the highest inhibition of the enzyme is achieved).

A further experiment has as its target MER kinase (Homo sapiens (Human), UniProt Q12866). As to the kind of experiment: Assay of small molecular compounds for inhibiting the activity of MER kinase (LANCE TR-FRET). The procedure: The assay of small molecular compounds for inhibiting the activity of MER kinase is based on the LANCE TR-FRET technology of Perkin Elmer Inc., and the assay method is as follows: • 1. Dilution of compounds: a total of 11 concentrations were obtained using a 3-fold gradient dilution from the highest concentration of 2500 nM (the maximum final concentration of the drug used in this assay was 2500 nM, and the minimum final concentration was 0.042 nM). • 2. 2.5 μL of the gradient-diluted compounds were taken with a transfer pipette to a 384-well plate. • 3. Addition of enzyme: 5 μL of 2×MER kinase solution (with a concentration of 1 nM) was taken with a transfer pipette to the corresponding reaction well of the 384-well plate, mixed well and pre-reacted at room temperature for 5 minutes. • 4. 2.5 μL 4× ULight-labeled Ploy GT (with a concentration of 200 nM)/ATP (with a concentration of 20 μM) mixture was taken with a transfer pipette to the corresponding reaction well of the 384-well plate. • 5. Negative control: 2.5 μL/well 4× substrate/ATP mixture and 7.5 μL 1× Kinase Assay Buffer were added to the wells of the 384-well plate.
(§1) Positive control: 2.5 μL/well 4× substrate/ATP mixture, 2.5 μL/well 1× Kinase Assay Buffer containing 4% DMSO, and 5 μL/well 2×MER kinase solution were added to the 384-well plate. The final concentration of DMSO in the reaction system was 1%. • 6. The mixture was mixed well and then centrifuged and reacted at room temperature in dark for 60 min. • 7. Termination of the enzymatic reaction: 5 μL of 4× stop solution was taken with a transfer pipette to the wells of the 384-well plate, mixed and then centrifuged, and reacted at room temperature for 5 min. • 8. Development of the reaction: 5 μL of 4× detection solution was taken with a transfer pipette to the wells of the 384-well plate for color development, and the mixture was mixed and then centrifuged and reacted at room temperature for 60 min. • 9. The 384-well plate was placed into the Envision plate reader and the signal was detected using the appropriate program. • 10. Analysis and processing of the raw data:
The drug concentrations and the corresponding inhibition rates were input into GraphPad Prism5 for calculation, and the inhibition rate of the compounds were calculated as follows: inhibition rate (%)=(reading of positive well−reading of experimental well)/(reading of positive control well−reading of negative control well)×100%. Processing with GraphPad Prism5 software yielded the corresponding IC50 values (the concentration of the compound at which 50% of the highest inhibition of the enzyme is achieved).
For orientation: In TR-FRET formats the signal depends on donor and acceptor labels being close together.

The target in another experiment is TRKA kinase (Homo sapiens (Human), UniProt P04629). Nature of the experiment: Assay of small molecular compounds for inhibiting the activity of TRKA kinase (LANCE TR-FRET). As to the method: The assay of small molecular compounds for inhibiting the activity of TRKA kinase is based on the LANCE TR-FRET technology of Perkin Elmer Inc., and the assay method is as follows: • 1. […] 2.5 μL of the gradient-diluted compounds were taken with a transfer pipette to a 384-well plate. • 3. Addition of enzyme: 5 μL of 2×TRKA kinase solution (with a concentration of 2 nM) was taken with a transfer pipette to the corresponding reaction well of the 384-well plate, mixed well and pre-reacted at room temperature for 5 minutes. • 4. 2.5 μL 4× Ultra ULight-labeled TK Peptide (with a concentration of 400 nM)/ATP (with a concentration of 40 μM) mixture was taken with a transfer pipette to the corresponding reaction well of the 384-well plate. • 5. Negative control: 2.5 μL/well 4× substrate/ATP mixture and 7.5 μL 1× Kinase Assay Buffer were added to the wells of the 384-well plate.
as §1, with “2×TRKA” for “2×MER”, “program.” for “program. • 10. Analysis and processing of the raw data:”

Chain of c-MET kinase (P08581 25-1390): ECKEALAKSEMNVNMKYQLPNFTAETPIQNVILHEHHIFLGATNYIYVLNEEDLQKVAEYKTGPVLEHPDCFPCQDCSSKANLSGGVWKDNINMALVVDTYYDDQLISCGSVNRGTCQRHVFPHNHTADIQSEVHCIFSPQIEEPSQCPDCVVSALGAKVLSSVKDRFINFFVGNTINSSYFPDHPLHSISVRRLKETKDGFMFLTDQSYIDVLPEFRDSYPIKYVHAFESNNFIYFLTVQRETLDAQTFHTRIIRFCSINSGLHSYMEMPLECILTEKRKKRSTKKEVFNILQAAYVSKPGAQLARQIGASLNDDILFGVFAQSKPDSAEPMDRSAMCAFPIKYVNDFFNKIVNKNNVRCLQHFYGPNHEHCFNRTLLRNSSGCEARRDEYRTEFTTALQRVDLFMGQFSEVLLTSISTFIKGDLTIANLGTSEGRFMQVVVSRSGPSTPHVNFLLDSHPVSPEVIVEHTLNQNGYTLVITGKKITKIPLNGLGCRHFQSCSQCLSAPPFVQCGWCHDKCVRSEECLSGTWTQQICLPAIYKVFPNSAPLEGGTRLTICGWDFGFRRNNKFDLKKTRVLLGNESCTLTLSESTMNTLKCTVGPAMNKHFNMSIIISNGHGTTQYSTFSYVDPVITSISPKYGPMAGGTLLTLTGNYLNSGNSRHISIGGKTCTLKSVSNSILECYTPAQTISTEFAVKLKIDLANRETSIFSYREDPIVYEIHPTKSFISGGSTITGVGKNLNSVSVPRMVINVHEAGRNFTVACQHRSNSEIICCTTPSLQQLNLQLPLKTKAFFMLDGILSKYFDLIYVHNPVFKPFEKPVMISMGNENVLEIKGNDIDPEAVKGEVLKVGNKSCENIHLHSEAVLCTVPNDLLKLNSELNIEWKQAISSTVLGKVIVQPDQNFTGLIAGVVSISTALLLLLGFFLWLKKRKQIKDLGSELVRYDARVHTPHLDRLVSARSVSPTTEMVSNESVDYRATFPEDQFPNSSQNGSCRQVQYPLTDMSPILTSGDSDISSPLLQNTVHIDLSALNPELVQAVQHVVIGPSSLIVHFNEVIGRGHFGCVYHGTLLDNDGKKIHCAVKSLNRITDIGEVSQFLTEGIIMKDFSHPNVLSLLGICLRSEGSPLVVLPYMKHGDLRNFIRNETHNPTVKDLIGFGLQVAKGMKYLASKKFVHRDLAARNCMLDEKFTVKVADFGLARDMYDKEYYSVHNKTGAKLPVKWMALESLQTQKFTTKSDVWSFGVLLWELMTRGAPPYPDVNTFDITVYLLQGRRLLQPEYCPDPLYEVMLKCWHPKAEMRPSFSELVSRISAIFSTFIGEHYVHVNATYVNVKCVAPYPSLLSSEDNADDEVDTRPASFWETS
Chain of TRKA kinase (P04629 33-796): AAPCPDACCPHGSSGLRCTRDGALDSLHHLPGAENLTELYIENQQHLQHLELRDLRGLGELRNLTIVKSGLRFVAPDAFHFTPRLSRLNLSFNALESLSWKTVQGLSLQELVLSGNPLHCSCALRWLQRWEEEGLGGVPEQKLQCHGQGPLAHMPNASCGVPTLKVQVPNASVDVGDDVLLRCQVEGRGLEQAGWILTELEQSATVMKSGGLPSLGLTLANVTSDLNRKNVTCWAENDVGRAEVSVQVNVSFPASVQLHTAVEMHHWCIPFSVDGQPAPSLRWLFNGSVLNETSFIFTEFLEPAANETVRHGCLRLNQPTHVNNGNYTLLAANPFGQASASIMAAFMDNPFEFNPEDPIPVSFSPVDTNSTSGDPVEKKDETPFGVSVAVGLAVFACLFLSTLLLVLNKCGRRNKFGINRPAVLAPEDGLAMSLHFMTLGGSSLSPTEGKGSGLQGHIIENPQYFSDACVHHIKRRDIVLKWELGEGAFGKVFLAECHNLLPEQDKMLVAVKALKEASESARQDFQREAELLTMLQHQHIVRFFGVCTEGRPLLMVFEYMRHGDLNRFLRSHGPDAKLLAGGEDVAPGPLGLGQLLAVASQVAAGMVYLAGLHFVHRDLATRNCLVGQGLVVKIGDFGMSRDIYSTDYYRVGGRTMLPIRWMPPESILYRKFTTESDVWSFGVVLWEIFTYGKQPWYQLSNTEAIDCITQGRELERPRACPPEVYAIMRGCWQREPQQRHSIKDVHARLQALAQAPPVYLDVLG
Chain of MER kinase (Q12866 21-999): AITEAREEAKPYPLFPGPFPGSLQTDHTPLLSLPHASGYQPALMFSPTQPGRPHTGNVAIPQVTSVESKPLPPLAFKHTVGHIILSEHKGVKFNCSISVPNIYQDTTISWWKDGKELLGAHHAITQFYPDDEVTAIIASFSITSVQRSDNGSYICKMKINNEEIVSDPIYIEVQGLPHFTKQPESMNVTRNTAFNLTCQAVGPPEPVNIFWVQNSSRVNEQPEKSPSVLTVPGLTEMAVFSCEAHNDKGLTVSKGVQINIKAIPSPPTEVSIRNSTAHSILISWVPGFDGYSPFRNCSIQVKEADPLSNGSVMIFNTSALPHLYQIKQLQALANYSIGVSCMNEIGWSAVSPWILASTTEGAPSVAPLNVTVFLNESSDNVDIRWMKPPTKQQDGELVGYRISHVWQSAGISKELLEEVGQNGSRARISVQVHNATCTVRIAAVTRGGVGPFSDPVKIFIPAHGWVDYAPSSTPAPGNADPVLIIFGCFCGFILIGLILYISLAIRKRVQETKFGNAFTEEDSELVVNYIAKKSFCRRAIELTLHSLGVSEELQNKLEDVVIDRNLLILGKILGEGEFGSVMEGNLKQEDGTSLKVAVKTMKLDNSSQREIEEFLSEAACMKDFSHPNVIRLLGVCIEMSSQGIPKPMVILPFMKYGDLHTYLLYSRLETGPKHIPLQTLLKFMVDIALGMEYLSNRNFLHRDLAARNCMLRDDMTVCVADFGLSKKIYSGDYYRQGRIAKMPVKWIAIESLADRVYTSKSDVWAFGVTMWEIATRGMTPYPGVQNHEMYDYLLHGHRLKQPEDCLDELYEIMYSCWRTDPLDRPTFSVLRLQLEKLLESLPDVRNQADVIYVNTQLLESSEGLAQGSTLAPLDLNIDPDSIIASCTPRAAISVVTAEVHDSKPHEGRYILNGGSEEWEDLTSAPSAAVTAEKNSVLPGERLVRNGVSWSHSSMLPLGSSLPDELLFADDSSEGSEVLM

What is called IC50 is the concentration needed to halve the response being measured. Consider `COc1cn(-c2ccc(F)cc2C)nc1C(=O)Nc1ccc(Oc2ncnc3cc(OC)c4c(c23)OCCO4)c(F)c1` [Example 8, 1-(4-fluoro-2-methylphenyl)-N-(3-fluoro-4-((5-methoxy-2,3-dihydro-[1,4]dioxino[2,3-f]quinazolin-10-yl)oxy)phenyl)-4-methoxy-1H-pyrazole-3-carboxamide], for which the results for the IC50 at c-MET kinase and against MER kinase were 50 to 500 nM and 500 to 5000 nM, respectively.
On the same counts, the results for `CCOc1cn(-c2ccc(F)cc2C)nc1C(=O)Nc1ccc(Oc2ncnc3cc(OC)c4c(c23)OCCO4)c(F)c1` [Example 9, 1-(4-fluoro-2-methylphenyl)-N-(3-fluoro-4-((5-methoxy-2,3-dihydro-[1,4]dioxino[2,3-f]quinazolin-10-yl)oxy)phenyl)-4-ethoxy-1H-pyrazole-3-carboxamide] are 50 to 500 nM and 500 to 5000 nM.
For `Cc1cc(F)ccc1-n1ccc(C(=O)Nc2ccc(Oc3ncnc4cc(OCCCN5CCOCC5)c5c(c34)OCCO5)c(F)c2)n1` [Example 10, 1-(4-fluoro-2-methylphenyl)-N-(3-fluoro-4-((5-(3-morpholinopropoxy)-2,3-dihydro-[1,4]dioxino[2,3-f]quinazolin-10-yl)oxy)phenyl)-1H-pyrazole-3-carboxamide] the same measures were at most 50 nM and 50 to 500 nM.
Regarding `COc1cc2nccc(Oc3ccc(NC(=O)c4cn(C(C)C)c(=O)n(-c5ccc(F)cc5)c4=O)cc3F)c2c2c1OCCO2` [Example 14, N-(3-fluoro-4-((5-methoxy-2,3-dihydro-[1,4]dioxino[2,3-f]quinolin-10-yl)oxy)phenyl)-3-(4-fluorophenyl)-1-isopropyl-2,4-dioxo-1,2,3,4-tetrahydropyrimidine-5-carboxamide], the IC50 at c-MET kinase is at most 50 nM; against MER kinase it was at most 50 nM; against TRKA kinase, 50 to 500 nM.
On to `COc1cc2nccc(Oc3ccc(NC(=O)c4ccn(-c5ccc(F)cc5C)n4)cc3F)c2c2c1OCCO2` [Example 23, 1-(4-fluoro-2-methylphenyl)-N-(3-fluoro-4-((5-methoxy-2,3-dihydro-[1,4]dioxino[2,3-f]quinolin-10-yl)oxy)phenyl)-1H-pyrazole-3-carboxamide], for which the IC50 on c-MET kinase lay within 50 to 500 nM; at MER kinase, 500 to 5000 nM; at TRKA kinase, 50 to 500 nM.
For the compound `CCOc1cn(-c2ccc(F)cc2C)nc1C(=O)Nc1ccc(Oc2ccnc3cc(OC)c4c(c23)OCCO4)c(F)c1` [Example 25, 1-(4-fluoro-2-methylphenyl)-N-(3-fluoro-4-((5-methoxy-2,3-dihydro-[1,4]dioxino[2,3-f]quinolin-10-yl)oxy)phenyl)-4-ethoxy-1H-pyrazole-3-carboxamide], the IC50 at c-MET kinase, at MER kinase and against TRKA kinase was 50 to 500 nM throughout.
On to `COc1cc2nccc(Oc3ccc(NC(=O)c4cn(CC(C)C)c(=O)n(-c5ccc(F)cc5)c4=O)cc3F)c2c2c1OCCO2` [Example 47, N-(3-fluoro-4-((5-methoxy-2,3-dihydro-[1,4]dioxino[2,3-f]quinolin-10-yl)oxy)phenyl)-3-(4-fluorophenyl)-1-isobutyl-2,4-dioxo-1,2,3,4-tetrahydropyrimidine-5-carboxamide], for which the figures for the IC50 on c-MET kinase, against MER kinase and against TRKA kinase were at most 50 nM, 50 to 500 nM and 50 to 500 nM, respectively.
Consider `COc1cc2nccc(Oc3ccc(NC(=O)c4cn(CC5CC5)c(=O)n(-c5ccc(F)cc5)c4=O)cc3F)c2c2c1OCCO2` [Example 48, N-(3-fluoro-4-((5-methoxy-2,3-dihydro-[1,4]dioxino[2,3-f]quinolin-10-yl)oxy)phenyl)-3-(4-fluorophenyl)-1-(cyclopropylmethyl)-2,4-dioxo-1,2,3,4-tetrahydropyrimidine-5-carboxamide], for which the results for the half-inhibitory concentration (IC50) at c-MET kinase, on MER kinase and against TRKA kinase were at most 50 nM, 50 to 500 nM and 50 to 500 nM, respectively.
With `CC(C)COc1cc2nccc(Oc3ccc(NC(=O)c4cn(C)c(=O)n(-c5ccc(F)cc5)c4=O)cc3F)c2c2c1OCCO2` [Example 83, N-(3-fluoro-4-((5-(isobutoxy)-2,3-dihydro-[1,4]dioxino[2,3-f]quinolin-10-yl)oxy)phenyl)-3-(4-fluorophenyl)-1-methyl-2,4-dioxo-1,2,3,4-tetrahydropyrimidine-5-carboxamide], the IC50 on c-MET kinase was 500 to 5000 nM; at MER kinase, 50 to 500 nM; against TRKA kinase, 50 to 500 nM.
On to `Cn1cc(C(=O)Nc2ccc(Oc3ccnc4cc(OCC5CC5)c5c(c34)OCCO5)c(F)c2)c(=O)n(-c2ccc(F)cc2)c1=O` [Example 84, N-(3-fluoro-4-((5-(cyclopropylmethoxy)-2,3-dihydro-[1,4]dioxino[2,3-f]quinolin-10-yl)oxy)phenyl)-3-(4-fluorophenyl)-1-methyl-2,4-dioxo-1,2,3,4-tetrahydropyrimidine-5-carboxamide], for which the 50% inhibitory concentration (IC50) on c-MET kinase, against MER kinase and against TRKA kinase was 50 to 500 nM throughout.
Take `CC(C)n1cc(C(=O)Nc2ccc(Oc3ccnc4cc(OC5COC5)c5c(c34)OCCO5)c(F)c2)c(=O)n(-c2ccc(F)cc2)c1=O` [Example 89, N-(3-fluoro-4-((5-((oxetan-3-yl)oxy)-2,3-dihydro-[1,4]dioxino[2,3-f]quinolin-10-yl)oxy)phenyl)-3-(4-fluorophenyl)-1-isopropyl-2,4-dioxo-1,2,3,4-tetrahydropyrimidine-5-carboxamide]: the IC50 at c-MET kinase is 50 to 500 nM; at MER kinase it was at most 50 nM; against TRKA kinase, 50 to 500 nM.

These data come from patent US12202835B2, “Substituted aromatic ring-linked dioxinoquinazolines and dioxinoquinolines as kinase inhibitors” (BEIJING SCITECH-MQ PHARMACEUTICALS LIMITED, priority 2018, dated 2025).
